Laboratory results reported in patent publication US20260158152A1, “SPLICING MODULATOR ANTIBODY-DRUG CONJUGATES AND METHODS OF USE” (EISAI R&D MANAGEMENT CO., LTD., priority 2018, published 2026).

Columns and labels:
[1] = Caco-2 permeability of ADC payload; type: in vitro ADME; settings: human, Caco-2; payload, apical to basolateral, 2 hours; read-out: Permeability Mean Caco-2 A-B Perm (10e−6 cm/s)
MOLP8 cells = experiment: Cell viability, CD138-expressing MOLP8; type: cell-based; settings: unconjugated payload of the ADC
N87 cells = experiment: Cell viability CellTiter-Glo, N87; type: cell-based, human; settings: unconjugated payload of the ADC
PC3 cells = experiment: Cell viability, EPHA2-expressing PC3; type: cell-based; settings: free payload of the ADC
THP1.1 = experiment: Payload cell potency and lethality CellTiter-Glo, THP1; type: cell-based; settings: payload of the ADC
Method: Each concentration was tested in triplicate. […] Values represent time zero (TO).

Ad2.1 pre-mRNA splicing = experiment: In vitro splicing (IVS) RT-qPCR, Ad2.1 pre-mRNA in HeLa S3 nuclear extract; type: biochemical; settings: payload of the ADC; read-out: qPCR-IVS-ATS GMean IC50 (nM) Ad2.1
Method: To evaluate payload activity in a cell-free system, an in vitro splicing assay was performed. The payloads were incubated with nuclear extracts and pre-mRNA substrate minigenes.
HeLa nuclear extract preparation: HeLa S3 cell pellets were resuspended in hypotonic buffer (10 mM HEPES PH 7.9, 1.5 mM MgCl2, 10 mM KCl, 0.2 mM PMSF, 0.5 mM DTT) and the suspension was brought up to a total of 5 packed cell volume (PCV). After centrifugation, the supernatant was discarded, and the cells were brought up to 3 PCV with hypotonic buffer and incubated on ice for 10 min. Cells were lysed using a dounce homogenizer and then centrifuged. […]. The nuclei were gently mixed for 30 min before centrifuging. The supernatant (nuclear extract) was then dialyzed into storage buffer (20 mM HEPES pH 7.9, 100 mM KCl, 0.2 mM EDTA, 20% glycerol, 0.2 mM PMSF, 0.5 mM DTT). Protein concentration was determined using NanoDrop 8000 UV-Vis spectrophotometer (ThermoFisher Scientific).
IVS: All Ad2-derived sequences (Pellizzoni et al. (1998) Cell 95 (5): 615-24) were cloned into pcDNA3.1(+) vector (Promega) using 5′ EcoRI and 3′ XbaI restriction sites. The plasmids were linearized using XbaI and used as DNA templates in in vitro transcription reactions. The FtzΔi intron-less plasmid (Luo and Reed (1999) 96 (26): 14937-42) was linearized using EcoRI. […]

| Papp A→B at 2 h, 10 µM [1] | Compound | Payload Rmin (%) (MOLP8 cells) | Payload Rmin (%) (N87 cells) | Payload Rmin (PC3 cells) | Payload cell lethality: CT..-ATS GMean LD50 (nM) THP1.1 (THP1.1) | IC50 (Ad2.1 pre-mRNA splicing) |
| --- | --- | --- | --- | --- | --- | --- |
| 0.08 ×10⁻⁶ cm/s | CC(=O)N1CCC(n2nnc3c(F)cc(/C=C(\C)[C@H]4OC(=O)C[C@H](O)CC[C@H](C)[C@@H](OC(=O)N5CCNCC5)/C=C/[C@@H]4C)cc32)CC1 [D14] | −6.1% | −52.662% | −79.835% | – | – |
| – | C/C(=C\c1cc(F)cc(N2CCN(C(=O)Cn3cccn3)CC2)c1)[C@H]1OC(=O)C[C@H](O)CC[C@H](C)[C@@H](OC(=O)N2CCNCC2)/C=C/[C@@H]1C [D16] | – | – | – | 21.48 nM | 18 nM |
